# Experimental data as given in patent publication US6479435B1, “Diaryl ethers and processes for their preparation and herbicidal and desiccant compositions containing them” (ISK Americas Incorporated, priority 1997, dated 2002).
# Columns and labels:
# Assay type in all cases: in vivo
# [1] = system: green foxtail (Setaria viridis, SETVI); assay: Post-emerge greenhouse herbicide test, phytotoxicity rating; conditions: 14 days after application
# In short: (§1)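 Compounds in acetone with 0.25% v/v non-ionic surfactant were track-sprayed at 187 l/ha over plants at the 2-3 leaf stage, at 63 to 1000 g ai/ha. Pots were bottom-watered. Injury was scored visually 14 days later on a 0-100 scale, where 0 is no damage and 100 is complete plant death.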
# [2] = system: redroot pigweed (Amaranthus retroflexus, AMARE); assay: as above; conditions: 14 days after application
# In short: as §1
# [3] = system: Johnsongrass (Sorghum halepense, SORHA); assay: as above; conditions: 14 days after application
# In short: as §1
# [4] = system: ivyleaf morningglory (Ipomoea hederacea, IPOHE); assay: as above; conditions: 14 days after application
# In short: as §1
# [5] = system: barnyardgrass (Echinochloa crusgalli, ECHCG); assay: as above; conditions: 14 days after application
# In short: as §1
# [6] = system: lambsquarters (Chenopodium album, CHEAL); assay: as above; conditions: 14 days after application
# In short: as §1
# [7] = system: velvetleaf (Abutilon theophrasti, ABUTH); assay: as above; conditions: 14 days after application
# In short: as §1
# [8] = system: large crabgrass (Digitaria sanguinalis, DIGSA); assay: as above; conditions: 14 days after application
# In short: as §1
# [9] = system: green foxtail (Setaria viridis, SETVI); assay: Pre-emerge greenhouse herbicide test, phytotoxicity rating; conditions: 14 days after application, rating scale 0-100
# In short: (§2)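 Seeds sown in sandy loam mix one day before track-sprayer application of compounds in acetone at 125–1000 g ai/ha (187 l/ha), then surface-watered to incorporate and bottom-watered. Visual rating 14 days after application on a 0–100 scale (0 = no damage, 100 = all plants dead).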
# [10] = system: common ragweed (Ambrosia artemisiifolia L., AMBEL); assay: as above; conditions: 14 days after application, rating scale 0-100
# In short: as §2
# [11] = system: redroot pigweed (Amaranthus retroflexus, AMARE); assay: as above; conditions: 14 days after application, rating scale 0-100
# In short: as §2
# [12] = system: Johnsongrass (Sorghum halepense, SORHA); assay: as above; conditions: 14 days after application, rating scale 0-100
# In short: as §2
# [13] = system: ivyleaf morningglory (Ipomoea hederacea, IPOHE); assay: as above; conditions: 14 days after application, rating scale 0-100
# In short: as §2
# [14] = system: barnyardgrass (Echinochloa crusgalli, ECHCG); assay: as above; conditions: 14 days after application, rating scale 0-100
# In short: as §2
# [15] = system: lambsquarters (Chenopodium album, CHEAL); assay: as above; conditions: 14 days after application, rating scale 0-100
# In short: as §2
# [16] = system: velvetleaf (Abutilon theophrasti, ABUTH); assay: as above; conditions: 14 days after application, rating scale 0-100
# In short: as §2
# [17] = system: sicklepod (Cassia obtusifolia, CASOB); assay: as above; conditions: 14 days after application, rating scale 0-100
# In short: as §2
# [18] = system: large crabgrass (Digitaria sanguinalis, DIGSA); assay: as above; conditions: 14 days after application, rating scale 0-100
# In short: as §2
# [19] = system: soybean (Glycine max L., var. Pella 86, SOY); assay: Post-emerge greenhouse test, crop damage rating; conditions: 14 days after application
# In short: as §1
# [20] = system: common ragweed (Ambrosia artemisiifolia L., AMBEL); assay: Post-emerge greenhouse herbicide test, phytotoxicity rating; conditions: 14 days after application
# In short: as §1
# [21] = system: field corn (Zea mays L., var. Dekalb 535, CORN); assay: Pre-emerge greenhouse test, crop damage rating; conditions: 14 days after application, rating scale 0-100
# In short: as §2
# [22] = system: upland rice (Oryza sp., var.Tebonnet, RICE); assay: Pre-emerge greenhouse test, crop damage rating; conditions: 14 days after application, rating scale 0-100
# In short: as §2
# [23] = system: soybean (Glycine max L., var. Pella 86, SOY); assay: Pre-emerge greenhouse test, crop damage rating; conditions: 14 days after application, rating scale 0-100
# In short: as §2
# [24] = system: field corn (Zea mays L., var. Dekalb 535, CORN); assay: Post-emerge greenhouse test, crop damage rating; conditions: 14 days after application
# In short: as §1
# [25] = system: upland rice (Oryza sp., var.Tebonnet, RICE); assay: Post-emerge greenhouse test, crop damage rating; conditions: 14 days after application
# In short: as §1
structure (smiles),measurement,setting,value
O=c1n(CCCF)nnn1-c1cc(Oc2ncccc2C(F)(F)F)c(Cl)cc1Cl [Compound 6-7],SETVI phytotoxicity rating (0-100),[1]; 63 g al/ha,20
same,SETVI phytotoxicity rating (0-100),[1]; 500 g al/ha,30
same,AMARE phytotoxicity rating (0-100),[2]; 63 g al/ha,70
same,AMARE phytotoxicity rating (0-100),[2]; 500 g al/ha,80
same,SORHA phytotoxicity rating (0-100),[3]; 63 g al/ha,0
same,SORHA phytotoxicity rating (0-100),[3]; 500 g al/ha,30
same,IPOHE phytotoxicity rating (0-100),[4]; 63 g al/ha,0
same,IPOHE phytotoxicity rating (0-100),[4]; 500 g al/ha,50
same,ECHCG phytotoxicity rating (0-100),[5]; 63 g al/ha,0
same,ECHCG phytotoxicity rating (0-100),[5]; 500 g al/ha,50
same,CHEAL phytotoxicity rating (0-100),[6]; 63 g al/ha,50
same,CHEAL phytotoxicity rating (0-100),[6]; 500 g al/ha,80
same,ABUTH phytotoxicity rating (0-100),[7]; 63 g al/ha,0
same,ABUTH phytotoxicity rating (0-100),[7]; 500 g al/ha,70
same,DIGSA phytotoxicity rating (0-100),[8]; 63 g al/ha,0
same,DIGSA phytotoxicity rating (0-100),[8]; 500 g al/ha,10
same,phytotoxicity rating SETVI,[9]; 125 g ai/ha,80
same,phytotoxicity rating SETVI,[9]; 500 g ai/ha,100
same,phytotoxicity rating AMBEL,[10]; 125 g ai/ha,30
same,phytotoxicity rating AMBEL,[10]; 500 g ai/ha,0
same,phytotoxicity rating AMARE,[11]; 500 g ai/ha,100
same,phytotoxicity rating SORHA,[12]; 125 g ai/ha,20
same,phytotoxicity rating SORHA,[12]; 500 g ai/ha,40
same,phytotoxicity rating IPOHE,[13]; 125 g ai/ha,0
same,phytotoxicity rating IPOHE,[13]; 500 g ai/ha,30
same,phytotoxicity rating ECHCG,[14]; 125 g ai/ha,0
same,phytotoxicity rating ECHCG,[14]; 500 g ai/ha,50
same,phytotoxicity rating CHEAL,[15]; 125 g ai/ha,80
same,phytotoxicity rating CHEAL,[15]; 500 g ai/ha,90
same,phytotoxicity rating ABUTH,[16]; 125 g ai/ha,0
same,phytotoxicity rating ABUTH,[16]; 500 g ai/ha,20
same,phytotoxicity rating CASOB,[17]; 125 g ai/ha,0
same,phytotoxicity rating CASOB,[17]; 500 g ai/ha,60
same,phytotoxicity rating DIGSA,[18]; 125 g ai/ha,40
same,phytotoxicity rating DIGSA,[18]; 500 g ai/ha,70
same,SOY crop damage rating (0-100),[19]; 63 g al/ha,0
same,SOY crop damage rating (0-100),[19]; 500 g al/ha,30
same,AMBEL phytotoxicity rating (0-100),[20]; 63 g al/ha,0
same,AMBEL phytotoxicity rating (0-100),[20]; 500 g al/ha,30
same,crop damage rating CORN,[21]; 125 g ai/ha,0
same,crop damage rating CORN,[21]; 500 g ai/ha,30
same,crop damage rating RICE,[22]; 125 g ai/ha,0
same,crop damage rating RICE,[22]; 500 g ai/ha,40
same,crop damage rating SOY,[23]; 125 g ai/ha,80
same,crop damage rating SOY,[23]; 500 g ai/ha,90
same,CORN crop damage rating (0-100),[24]; 63 g al/ha,0
same,CORN crop damage rating (0-100),[24]; 500 g al/ha,10
same,RICE crop damage rating (0-100),[25]; 63 g al/ha,0
same,RICE crop damage rating (0-100),[25]; 500 g al/ha,50
O=c1n(CCCF)nnn1-c1cc(Oc2ncccn2)c(Cl)cc1Cl [Compound 6-14],SETVI phytotoxicity rating (0-100),[1]; 63 g al/ha,0
same,SETVI phytotoxicity rating (0-100),[1]; 500 g al/ha,70
same,AMARE phytotoxicity rating (0-100),[2]; 63 g al/ha,20
same,AMARE phytotoxicity rating (0-100),[2]; 500 g al/ha,100
same,SORHA phytotoxicity rating (0-100),[3]; 63 g al/ha,30
same,SORHA phytotoxicity rating (0-100),[3]; 500 g al/ha,90
same,IPOHE phytotoxicity rating (0-100),[4]; 63 g al/ha,50
same,IPOHE phytotoxicity rating (0-100),[4]; 500 g al/ha,100
same,ECHCG phytotoxicity rating (0-100),[5]; 63 g al/ha,0
same,ECHCG phytotoxicity rating (0-100),[5]; 500 g al/ha,60
same,CHEAL phytotoxicity rating (0-100),[6]; 63 g al/ha,70
same,CHEAL phytotoxicity rating (0-100),[6]; 500 g al/ha,95
same,ABUTH phytotoxicity rating (0-100),[7]; 63 g al/ha,70
same,ABUTH phytotoxicity rating (0-100),[7]; 500 g al/ha,100
same,DIGSA phytotoxicity rating (0-100),[8]; 63 g al/ha,0
same,DIGSA phytotoxicity rating (0-100),[8]; 500 g al/ha,30
same,phytotoxicity rating SETVI,[9]; 125 g ai/ha,100
same,phytotoxicity rating SETVI,[9]; 500 g ai/ha,100
same,phytotoxicity rating AMBEL,[10]; 125 g ai/ha,20
same,phytotoxicity rating AMBEL,[10]; 500 g ai/ha,95
same,phytotoxicity rating AMARE,[11]; 125 g ai/ha,100
same,phytotoxicity rating AMARE,[11]; 500 g ai/ha,100
same,phytotoxicity rating SORHA,[12]; 125 g ai/ha,80
same,phytotoxicity rating SORHA,[12]; 500 g ai/ha,100
same,phytotoxicity rating IPOHE,[13]; 125 g ai/ha,60
same,phytotoxicity rating IPOHE,[13]; 500 g ai/ha,95
same,phytotoxicity rating ECHCG,[14]; 125 g ai/ha,60
same,phytotoxicity rating ECHCG,[14]; 500 g ai/ha,99
same,phytotoxicity rating CHEAL,[15]; 125 g ai/ha,100
same,phytotoxicity rating CHEAL,[15]; 500 g ai/ha,100
same,phytotoxicity rating ABUTH,[16]; 125 g ai/ha,100
same,phytotoxicity rating ABUTH,[16]; 500 g ai/ha,100
same,phytotoxicity rating CASOB,[17]; 125 g ai/ha,60
same,phytotoxicity rating CASOB,[17]; 500 g ai/ha,90
same,phytotoxicity rating DIGSA,[18]; 125 g ai/ha,90
same,phytotoxicity rating DIGSA,[18]; 500 g ai/ha,100
same,SOY crop damage rating (0-100),[19]; 63 g al/ha,50
same,SOY crop damage rating (0-100),[19]; 500 g al/ha,90
same,AMBEL phytotoxicity rating (0-100),[20]; 63 g al/ha,0
same,AMBEL phytotoxicity rating (0-100),[20]; 500 g al/ha,50
same,crop damage rating CORN,[21]; 125 g ai/ha,20
same,crop damage rating CORN,[21]; 500 g ai/ha,40
same,crop damage rating RICE,[22]; 125 g ai/ha,30
same,crop damage rating RICE,[22]; 500 g ai/ha,80
same,crop damage rating SOY,[23]; 125 g ai/ha,10
same,crop damage rating SOY,[23]; 500 g ai/ha,80
same,CORN crop damage rating (0-100),[24]; 63 g al/ha,0
same,CORN crop damage rating (0-100),[24]; 500 g al/ha,20
same,RICE crop damage rating (0-100),[25]; 63 g al/ha,20
same,RICE crop damage rating (0-100),[25]; 500 g al/ha,50
